Data: patent publication US10927086B2, “Substituted sulfoximine compounds as indoleamine 2,3-dioxygenase (IDO) inhibitors” (Merck Sharp & Dohme Corp., priority 2017, dated 2021)

Tests used:
IDO1 [1] = molecular target: T1, IDO1 (Homo sapiens (Human), UniProt P14902); assay: IDO1 Enzyme Assay; assay type: biochemical; details: HIS-tagged recombinant IDO1, fluorescence readout
Procedure: (§1) Compounds to be tested were serially diluted in ten 3-fold steps in DMSO starting from 10 mM DMSO stocks. Compound dilutions or DMSO alone were then dispensed from the dilution plate into a Greiner black 384-well assay plate (catalog #781086) using an Echo 555 acoustic liquid handler (Labcyte).
HIS-tagged IDO1 protein was recombinantly expressed in Escherichia coli using ZYP5052 autoinduction media supplemented with 500 μM delta aminolevulinic acid for 48 h at 16° C. IDO1 protein was purified using Ni^2+-affinity resin and size exclusion chromatography. Purified protein was then diluted in assay buffer (50 mM Tris pH 7.0, 1% glycerol, 20 μM methylene blue, 0.05% Tween-20, 20 mM sodium ascorbate, 100 units/mL catalase to obtain a final IDO1 concentration of 40 nM. IDO1 solution […] or buffer alone ([…]) were dispensed to wells of the assay plate using a BioRAPTR liquid dispenser (Beckman Coulter). Assay plates containing compound and IDO1 enzyme were incubated at RT for 30 min. Afterwards, 10 μL of 400 μM tryptophan in assay buffer were added to each well of the assay plate using a BioRAPTR liquid dispenser. Plates were incubated at RT for 60 min and reactions were quenched by addition of 10 μL of 0.5 M methyl isonipecotate in dimethyl sulfoxide. Plates were sealed and incubated at 37° C. for 4 h or 50° C. for 2 h. The plates are allowed to cool and then centrifuged for 1 min at 1000×g. The resulting fluoresence was measured in an Envision plate reader (Perkin Elmer) with a 400/25 nm excitation filter and an 510/20 nm emission filter.
Potencies were calculated by linear least squares fit to the four parameter logistic IC50 equation.
Target sequence in this assay (P14902 whole entry, species assumed): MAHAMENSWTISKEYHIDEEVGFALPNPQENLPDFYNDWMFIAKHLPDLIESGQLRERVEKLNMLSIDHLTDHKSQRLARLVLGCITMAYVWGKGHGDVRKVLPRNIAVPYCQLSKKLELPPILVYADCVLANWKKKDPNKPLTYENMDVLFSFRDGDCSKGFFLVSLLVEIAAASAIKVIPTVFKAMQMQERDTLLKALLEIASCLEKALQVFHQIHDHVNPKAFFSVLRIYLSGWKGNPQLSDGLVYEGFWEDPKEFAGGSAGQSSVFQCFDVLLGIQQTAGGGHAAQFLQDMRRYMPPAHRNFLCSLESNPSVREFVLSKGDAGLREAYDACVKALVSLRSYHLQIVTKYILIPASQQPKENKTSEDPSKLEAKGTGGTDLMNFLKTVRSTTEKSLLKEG

IDO1 [2] = molecular target: T1, IDO1; assay: IDO1 Cellular Assay in Hela Cells Stimulated with IFNγ; assay type: cell-based; details: about 48 hours, read-out: IDO1 HELA Cell Assay, IC50
Procedure: Hela cells were cultured in complete Hela culture medium (90% EMEM, 10% heat-inactivated fetal bovine serum) and expanded to about 1×10^9 cells. The cells were then collected and frozen down at 10×10^6 cells/vial in 1 mL frozen medium (90% complete Hela culture medium, 10% DMSO)
as §1, with “stocks in Echo low volume plate(s).” for “stocks.”, “plate(s)” for “plate”, “into” for “into a”, “#781086, 50 nL/well)” for “#781086)”, “550” for “555”
Target sequence in this assay (P14902 whole entry): as the sequence (P14902 whole entry, species assumed) above
Frozen Hela cells were thawed and transferred into Hela assay medium (99% complete Hela culture medium, 1% Pen/Strep) with 20 mL medium/vial of cells. The cells were spun down at 250 g in a table top centrifuge for 5 min and suspended in same volume of Hela assay medium. The cells were then counted and adjusted to a density of 2×10^5 cells/ml in Hela assay medium. Sterile L-tryptophan were added to the cells with final concentration of 300 uM L-tryptophan. A small aliquot (2 mL/plate) of Hela cells were set aside and were not treated with IFNγ, to serve as the Max-E control. The rest of Hela cells were added with sterile IFNγ (Cat #285-IF, R & D systems) with a final concentration of 100 ng/mL.
Hela cells with and without IFNγ were dispensed to the respective wells of 384-well assay plates containing the compounds. The plates were incubated for about 48 hours at a 37° C., 5% CO2 incubator. Afterwards, 12 μL of 0.5 M methyl isonipecotate in dimethyl sulfoxide were added into each well and the plates were sealed and incubated at 37° C. without CO2 overnight. The plates were centrifuged for 1 min at 200×g. The resulting fluorescence was measured in a Spectramax plate reader (Molecular Devices) with a 400 nm excitation filter and a 510 nm emission filter.
The fluorescence intensity of each well was corrected for the background observed in wells with non-IFNγ-treated cells and was expressed as a fraction of the intensity observed in wells of IFNγ-treated cells and DMSO only. Potencies were calculated by linear least squares fit to the four parameter logistic IC50 equation.

IC50 (IDO1 [1])	IC50 (IDO1 [2])	Compound
95 nM	62.8 nM	CS(=N)(=O)CCC(O)CNc1nonc1/C(=N\O)N[C@@H]1Cc2ccc(F)cc21 (single isomer, unassigned) [Example 81]
56.8 nM	43.6 nM	CS(=N)(=O)N1CC(Oc2nonc2/C(=N/O)N[C@H]2Cc3ccc(F)cc32)C1 (single isomer, unassigned) [Example 42]
119 nM	144 nM	CS(=N)(=O)CCOCCNc1nonc1/C(=N/O)N[C@H]1Cc2ccc(F)cc21 (single isomer, unassigned) [Example 48]
58.2 nM	95.5 nM	CS(=N)(=O)CCNC(=O)CNc1nonc1/C(=N/O)N[C@H]1Cc2ccc(F)cc21 (single isomer, unassigned) [Example 13]
44.9 nM	53.5 nM	CON=[S@](C)(=O)CCNc1nonc1/C(=N/O)NC1Cc2ccc(F)cc21 (single isomer, unassigned) [Example 90]
43.5 nM	30.5 nM	N=S(=O)(CCO)CCNc1nonc1/C(=N/O)N[C@H]1Cc2ccc(F)cc21 (single isomer, unassigned) [Example 8]
79.7 nM	41.6 nM	CS(=N)(=O)N1CC(CNc2nonc2/C(=N\O)N[C@@H]2Cc3ccc(F)cc32)C1 (single isomer, unassigned) [Example 70]
59.1 nM	44.6 nM	N=S(=O)(CCNc1nonc1/C(=N\O)N[C@@H]1Cc2ccc(F)cc21)C1CC1 (single isomer, unassigned) [Example 68]
34.1 nM	22.7 nM	CS(=N)(=O)N1CC2(CC(Nc3nonc3/C(=N\O)N[C@@H]3Cc4ccc(F)cc43)C2)C1 (single isomer, unassigned) [Example 77]
63.8 nM	103 nM	CS(=N)(=O)CCNC(=O)CNc1nonc1/C(=N/O)N[C@H]1Cc2ccc(F)cc21 (single isomer, unassigned) [Example 14]
49.3 nM	114 nM	CS(=N)(=O)CCNC(=O)CNc1nonc1/C(=N/O)N[C@H]1Cc2ccc(F)cc21 (stereo partly drawn) [Example 12, 2-((4-(N-((S)-4-fluorobicyclo[4.2.0]octa-1(6),2,4-trien-7-yl)-N′-hydroxycarbamimidoyl)-1,2,5-oxadiazol-3-yl)amino)-N-(2-(S-methylsulfonimidoyl)ethyl)acetamide]
43.3 nM	129 nM	CS(=N)(=O)CC(O)CNc1nonc1/C(=N/O)N[C@H]1Cc2ccc(F)cc21 (single isomer, unassigned) [Example 27]
91.7 nM	82 nM	CS(=N)(=O)CC12CC(Nc3nonc3/C(=N\O)N[C@@H]3Cc4ccc(F)cc43)(C1)C2 (single isomer, unassigned) [Example 82]
81.6 nM	128 nM	CS(=N)(=O)N[C@H]1C[C@@H](Oc2nonc2/C(=N\O)N[C@@H]2Cc3ccc(F)cc32)C1 (single isomer, unassigned) [Example 61]
63.9 nM	85.4 nM	C[S@](=N)(=O)C1CC(Nc2nonc2/C(=N\O)N[C@@H]2Cc3ccc(F)cc32)C1 (single isomer, unassigned) [Example 73]
108 nM	312 nM	CS(=N)(=O)N1CC(O)(CNc2nonc2/C(=N/O)N[C@H]2Cc3ccc(F)cc32)C1 (single isomer, unassigned) [Example 37]
111 nM	153 nM	CS(=N)(=O)CC(=O)N1CC(Oc2nonc2/C(=N/O)N[C@H]2Cc3ccc(F)cc32)C1 (single isomer, unassigned) [Example 50]
262 nM	317 nM	CS(=N)(=O)NCCOc1nonc1/C(=N/O)N[C@H]1Cc2ccc(F)cc21 (single isomer, unassigned) [Example 51]
125 nM	123 nM	CS(=O)(CCNc1nonc1/C(=N\O)N[C@H]1Cc2ccc(F)cc21)=NCCO (single isomer, unassigned) [Example 58]

IC50 (IDO1 [1])	IC50 (IDO1 [2])	Compound
64.6 nM	48.5 nM	N=S(=O)(CCNc1nonc1/C(=N\O)N[C@@H]1Cc2ccc(F)cc21)C1CC1 (single isomer, unassigned) [Example 69]
83 nM	200 nM	CS(=N)(=O)N1CCO[C@@H](CNc2nonc2/C(=N\O)N[C@@H]2Cc3ccc(F)cc32)C1 (single isomer, unassigned) [Example 64]
175 nM	148 nM	CS(=N)(=O)NCCOc1nonc1/C(=N/O)N[C@H]1Cc2ccc(F)cc21 (single isomer, unassigned) [Example 52]
184 nM	288 nM	CS(=N)(=O)CCCCOc1nonc1/C(=N/O)N[C@H]1Cc2ccc(F)cc21 (single isomer, unassigned) [Example 33]
48.2 nM	25.7 nM	N=S(N)(=O)CCCNc1nonc1/C(=N\O)NC1Cc2ccc(F)cc21 (stereo in doubt) [Example 65, 4-{[3-(S-aminosulfonimidoyl)propyl]amino}-N-[(7S)-4-fluorobicyclo[4.2.0]octa-1,3,5-trien-7-yl]-N′-hydroxy-1,2,5-oxadiazole-3-carboximidamide]
46.1 nM	51.9 nM	CC(O)CS(=N)(=O)CCNc1nonc1/C(=N\O)N[C@@H]1Cc2ccc(F)cc21 (single isomer, unassigned) [Example 87]
31.2 nM	42.7 nM	CS(=N)(=O)CCCNc1nonc1/C(=N/O)N[C@H]1Cc2ccc(F)cc21 (single isomer, unassigned) [Example 25]
90.4 nM	40.3 nM	CS(=N)(=O)C1CC2(CC(Nc3nonc3/C(=N\O)N[C@@H]3Cc4ccc(F)cc43)C2)C1 (single isomer, unassigned) [Example 75]
81.5 nM	83.9 nM	CS(=N)(=O)CC12CC(Nc3nonc3/C(=N\O)N[C@@H]3Cc4ccc(F)cc43)(C1)C2 (single isomer, unassigned) [Example 83]
213 nM	356 nM	C[S@@](=N)(=O)CCCOc1nonc1/C(=N/O)NC1Cc2ccc(F)cc21 (single isomer, unassigned) [Example 31]
53.7 nM	99.9 nM	CS(=N)(=O)CC(O)CNc1nonc1/C(=N/O)N[C@H]1Cc2ccc(F)cc21 (single isomer, unassigned) [Example 26]
231 nM	384 nM	C[S@@](=N)(=O)CCCOc1nonc1/C(=N/O)NC1Cc2ccc(F)cc21 (single isomer, unassigned) [Example 30]
47.2 nM	41.8 nM	CON=[S@](C)(=O)CCNc1nonc1/C(=N/O)NC1Cc2ccc(F)cc21 (single isomer, unassigned) [Example 91]
137 nM	81.5 nM	N=S1(=O)CCC1CNc1nonc1/C(=N/O)N[C@H]1Cc2ccc(F)cc21 (single isomer, unassigned) [Example 22]
70.4 nM	123 nM	CS(=N)(=O)CC(O)CNc1nonc1/C(=N/O)N[C@H]1Cc2ccc(F)cc21 (single isomer, unassigned) [Example 29]
107 nM	162 nM	CS(=N)(=O)NCC(O)CNc1nonc1/C(=N\O)N[C@H]1Cc2ccc(F)cc21 (single isomer, unassigned) [Example 56]
68.3 nM	69.9 nM	CS(=N)(=O)N1CCC(Nc2nonc2/C(=N/O)N[C@H]2Cc3ccc(F)cc32)CC1 (single isomer, unassigned) [Example 18]
57.8 nM	74.8 nM	CS(=N)(=O)CCC(O)CNc1nonc1/C(=N\O)N[C@@H]1Cc2ccc(F)cc21 (single isomer, unassigned) [Example 78]
